The structures appear in SMILES notation.

The test system of this assay is U937 cells. Kind of assay: Number of SLPI binding sites on PMA-induced U937 cells (Scatchard plot). Format: cell-based, human. The following applies: PMA 25 ng per ml, 48 hours, versus non-induced cells. As for the experimental part:
U937 cells were induced by 13-phorbol-12-myristate acetate ("PMA").
U937 cells at an initial concentration of 10,000 cells per ml were placed in two flasks. PMA was added to one flask at a final concentration of 25 ng per ml. After 48 hours, cells were harvested from both flasks. Using the method of Dripps et al., J. Biol. Chem., Vol. 266, No. 16, pp. 10331-10336 (1991), and labelling with I-125, having a specific activity of 91.5 Curries per millimole, the number of SLPI binding sites was determined. […] In this experiment, the Kd in non-induced cells was 1.1 lnM; The Kd in PMA-induced cells was 1.0 nM. The reduction in the number of SLPI binding sites in the PMA-induced cells is consistent with SLPI binding to elastase and cathepsin G on the cell surface.

Regarding `CCCCCCCCCCCCCC(=O)O[C@@H]1[C@@H](C)[C@@]2(O)[C@@H](C=C(CO)C[C@]3(O)C(=O)C(C)=C[C@@H]23)[C@@H]2C(C)(C)[C@]12OC(C)=O` [PMA, 13-phorbol-12-myristate acetate], the “Reduction in the number of SLPI binding sites” value was 70%.

The values above are taken from patent US6017880A, “Inhibition of retrovirus infection” (Amgen Inc., priority 1995, dated 2000).
